Assay results published in patent US20020192161A1, “Animal model for evaluating analgesics” (priority 2001, published 2002).
Like-named read-outs stand apart in the source and are kept apart here.

Experiments:
[1] = cited from earlier work; for area under serum drug concentration AUC0-2h: 200 mg dose; for AUC0-2h: 600 mg dose
[2] = Bioavailability of oral ibuprofen crushed tablets in control rats; assay type: in vivo, Sprague-Dawley rats
Experimental: (§1) The animal models are Adult male Sprague-Dawley rats with body weight of 250-300 g, and which were cared for in accordance with the principles and guidelines of the Canadian Council of Animal Care. All rats were catheterized in the right jugular vein for sample collection.
(§2) The tablets were crushed gently and small pieces were administered into the stomach via a plastic tube followed by 0.5 mL tap water. […] They had free access to water.

[3] = Bioavailability of oral ibuprofen formulations in vagal-suppressed (propantheline-treated, Pain Model) rats; assay type: in vivo; settings: male, Sprague-Dawley, rat, plasma, 20 mg/kg
Experimental: as §1
An animal model having suppressed vagal properties were produced by administering (intraperitoneal injection) to the rats two 20 mg/kg doses of propantheline (test, n=6), an anticholinergic agent with known vagal suppressive properties, the first dose at 2 hours prior to administration of an NSAID, and the second at 1 hour prior.
as §2

[4] = cited from earlier work
[5] = male, Sprague-Dawley, rat, plasma, po, 20 mg/kg

| Compound | area under serum drug concentration AUC0-2h ([1]; before dental extraction) [mg/L^−1/h] | AUC0-2h ([1]; after dental extraction) [ng·h/mL] | AUC0-2h ([1]; before dental extraction) [ng·h/mL] | AUC (0-8) ([2]; control rats, 20 mg/kg ibuprofen oral as crushed tablets) [μg/h/mL^−1] | Cmax [2, 5] [ng/mL] | Tmax [2, 5] [min] | Cmax [3] [ng/mL] | Tmax [3] [min] | delay in the mean time to peak concentration caused by surgery ([1]; 200 mg and 600 mg doses, dental surgery) | solubility in water [4] |
| --- | --- | --- | --- | --- | --- | --- | --- | --- | --- | --- |
| CC(C)Cc1ccc([C@@H](C)C(=O)O)cc1 [R-ibuprofen, R(−)-2-(4-isobutylphenyl)propionic acid] | 5.5 | 5800 | 14400 |  |  |  |  |  |  |  |
| CC(C)Cc1ccc([C@H](C)C(=O)O)cc1 [S-ibuprofen, S(+)-2-(4-isobutylphenyl)propionic acid] | 5.6 | 7200 | 14200 |  |  |  |  |  |  |  |
| CC(C)Cc1ccc(C(C)C(=O)O)cc1 (racemic) [ibuprofen, (±)-2-(4-Isobutylphenyl)propionic acid] |  |  |  | 139 | 40400 | 16.8 | 13800 | 45 | two | less than 1 part of drug in 10,000 parts o |
